Measured values taken from US20080319087A1, “Use of Ambroxol for the Treatment of Rhinovirus Infections” (priority 2005, published 2008).
Structures can show the parent of a compound that is named as a salt.

Experiments:
[1] = tested on: human rhinovirus subtype 14 (HRV 14); experiment: plaque-reduction assay, HeLa cells infected with human rhinovirus subtype 14; assay type: cell-based
Experimental: For the purpose of the study HeLa cells were inocculated with human rhinovirus subtype 14 (HRV 14), isolated from nasopharyngeal secretions. Ambroxol hydrochloride (AX) was chosen as the compound for antiviral testing. The antiviral activity of the test substance was evaluated in the plaque-reduction assay. To test the effect of AX on rhinovirus replication HeLa cells were infected with a multiplicity of infection (MOI) of 0.0002, without (control for 100% infection) or in the presence of AX at concentrations between 0.3 and 10 μg/ml. Infected cell cultures were cultivated for three days. Inhibition of virus plaques was evaluated microscopically and compared with controls.

HeLa cells = assay type: cell-based; conditions: human, 5 days
Experimental: As a first step an assay on possible toxic effects of AX was performed by incubating HeLa cells with increasing dilutions of the test substance for 5 days.
Cell morphology was checked using a microscope. In addition, an assay for mitochondrial enzyme activity (MTT-assay) was used to evaluate the vitality of cells. No changes in cell morphology and enzyme activity were found at concentrations of 10 μg AX/ml and below.

influenza A virus = conditions: mice infected with influenza A virus; Yang et al., Eur. Resp. J. 19, 952-958 (2002); cited from earlier work

Nc1c(Br)cc(Br)cc1CN[C@H]1CC[C@H](O)CC1 [Ambroxol hydrochloride]
inhibition at 0.3 µg/mL ([1]; Human rhinovirus sp., 72 h, 0.3 μg/ml, HeLa cells, HRV 14, MOI 0.0002, three days, average of 6 individual tests, read-out: relative inhibition): 9.71% | inhibition at 0.6 µg/mL ([1]; Human rhinovirus sp., 72 h, 0.6 μg/ml, HeLa cells, HRV 14, MOI 0.0002, three days, average of 6 individual tests, read-out: relative inhibition): 14.4% | inhibition at 1.2 µg/mL ([1]; Human rhinovirus sp., 72 h, 1.2 μg/ml, HeLa cells, HRV 14, MOI 0.0002, three days, average of 6 individual tests, read-out: relative inhibition): 34.3% | inhibition at 2.5 µg/mL ([1]; Human rhinovirus sp., 72 h, 2.5 μg/ml, HeLa cells, HRV 14, MOI 0.0002, three days, average of 6 individual tests, read-out: relative inhibition): 36.8% | inhibition at 5 µg/mL ([1]; Human rhinovirus sp., 72 h, 5 μg/ml, HeLa cells, HRV 14, MOI 0.0002, three days, average of 6 individual tests, read-out: relative inhibition): 63.7% | inhibition at 10 µg/mL ([1]; Human rhinovirus sp., 72 h, 10 μg/ml, HeLa cells, HRV 14, MOI 0.0002, three days, average of 6 individual tests, read-out: relative inhibition): 70.7% | rhinovirus replication ([1]; conclusion from Table 6): effectively blocks rhinovirus replication | concentrations at which no changes in cell morphology were found (HeLa cells): ≤ 10 μg AX/ml | concentrations at which no changes in enzyme activity were found (HeLa cells): ≤ 10 μg AX/ml

Nc1c(Br)cc(Br)cc1CNC1CCC(O)CC1 (stereo not drawn) [Ambroxol, trans-4-(2-amino-3,5-dibromobenzylamino)-cyclohexanole]
survival rate (influenza A virus): increase the survival rate
